Results from patent US20120015032A1, “COMBINATION PREPARATION COMPRISING INHIBITOR OF HMG-COA REDUCTASE AND ASPIRIN AND METHOD FOR MANUFACTURING THE SAME” (HANALL PHARMACEUTICAL COMPANY, LTD., priority 2007, published 2012).

Legend:
Assay type in all cases: in vivo, rat
SD rats = test: Test of antiplatelet aggregation effect (bleeding time) in rats
Protocol: (§1) Animal tests supporting the effects of the present invention were carried out as described in Table 10 below. [table]

rats = test: Test of comparison of gastric mucosal injury in rats (index of gastric mucosal bleeding); details: Table 16
SHR rats = test: Test of antihypertensive effect in rats; details: light, p.o.
Protocol: as §1

[1] = Day 0, simvastatin 5 mg/kg alone
[2] = Day 5, simvastatin 5 mg/kg alone

Row | SMILES | platelet aggregation inhibitory effect (SD rats; rats, bleeding time, summary of Table 12) | occurrence of gastrointestinal disturbance (rats) | Bleeding time (SD rats; SD rats, simvastatin alone, light conditions, p.o., 2 hrs after administration) [s] | Diastolic blood pressure (DBP) (SHR rats; [1]) | Mean blood pressure (MBP) (SHR rats; [1]) | Systolic blood pressure (SBP) (SHR rats; [1]) | Diastolic blood pressure (DBP) (SHR rats; [2]) | Mean blood pressure (MBP) (SHR rats; [2]) | Systolic blood pressure (SBP) (SHR rats; [2])
1 | CC(=O)Oc1ccccc1C(=O)O [aspirin] | increased in proportion to the dose of aspirin | increased in proportion to an increase in the dose of aspirin | – | – | – | – | – | – | –
2 | CCC(C)(C)C(=O)O[C@H]1C[C@@H](C)C=C2C=C[C@H](C)[C@H](CC[C@@H]3C[C@@H](O)CC(=O)O3)[C@H]21 [simvastatin] | – | – | 782 ± 429 | 124.3 ± 15.5 | 139.0 ± 12.4 | 171.0 ± 8.7 | 125.1 ± 17.1 | 131.3 ± 12.6 | 173.9 ± 9.2
